Results reported in US12171801B2, “Compositions and related methods for controlling vector-borne diseases” (priority 2017, dated 2024).
Entries after “also recorded” stand apart in the source; their conditions may differ.

What was measured:
[1] = system: Acyrthosiphon pisum aphids; test: Aphid survival monitoring; format: in vivo
[2] = system: Acyrthosiphon pisum aphids; test: Aphid developmental stage monitoring; format: in vivo; conditions: for aphids that did not mature further than the 4rd instar stage: 11 days post-treatment
Procedure: (§1) In addition, the developmental stage (1st, 2nd, 3rd, 4th, 5th instar) was determined daily throughout the experiment. Once an aphid reached the 4th instar stage, they were given their own artificial feeding system in a deep petri dish so that fecundity could be monitored once they reached adulthood.
Each treatment group received approximately the same number of individuals from each of the collection plant. For each treatment, 20 aphids were placed onto each leaf. Aphids were monitored daily for survival and dead aphids were removed when they were discovered. In addition, the developmental stage (1st, 2nd, 3rd, 4th, 5th instar, and 5 R, representing a reproducing 5th instar) was determined daily throughout the experiment. Pictures of aphids were taken throughout the experiment to evaluate size differences between treatment groups.
Aphids LSR-1 (which harbor only Buchnera), Acyrthosiphon pisum were grown on fava bean plants (Vroma vicia faba from Johnny's Selected Seeds) in a climate-controlled incubator (16 h light/8 h dark photoperiod; 60±5% RH; 25±2° C.). Prior to being used for aphid rearing, fava bean plants were grown in potting soil at 24° C. with 16 h of light and 8 h of darkness. To limit maternal effects or health differences between plants, 5-10 adults from different plants were distributed among 10 two-week-old plants, and allowed to multiply to high density for 5-7 days. For experiments, first and second instar aphids were collected from healthy plants and divided into 2 different treatment groups: 1) negative control (leaf injected with water plus blue food coloring) and 2) leaf injected with 50 μg/ml rifampicin in water plus blue food coloring. Each treatment group received approximately the same number of individuals from each of the collection plants. For treatment, rifampicin stock solution (25 mg/ml in 100% methanol) was diluted to 50 μg/ml in water plus blue food coloring. The solution was then placed into a 1.5 ml Eppendorf tube with a fava bean stem perfused with the solutions and the opening of the tube was closed using parafilm. This feeding system was then placed into a deep petri dish (Fisher Scientific, Cat #FB0875711) and aphids were applied to the leaves of the plant. For each treatment, 74-81 aphids were placed onto each leaf. The feeding systems were changed every 2-3 days throughout the experiment. Aphids were monitored daily for survival and dead aphids were removed from the deep petri dish when they were discovered. In addition, the developmental stage (1st, 2nd, 3rd, 4th, 5th and 5 R (5th that has reproduced) instar) was determined daily throughout the experiment.
In addition, the developmental stage (1st 2nd, 3rd, 4th, 5th and 5 R (5th that has reproduced) instar) was determined daily throughout the experiment.
(§2) In addition, the developmental stage (1st, 2nd, 3rd, 4th, 5th, and 5 R (5th that has reproduced) instar) was determined daily throughout the experiment.
In addition, the developmental stage (1st, 2nd, 3rd, 4th, 5th and 5 R (5th that has reproduced) instar) was determined daily throughout the experiment.
In addition, the developmental stage (1st, 2nd, 3rd, 4th, 5th, and 5 R (5th instar aphids that are reproducing) instar) was determined daily throughout the experiment.
In addition, the developmental stage (1st, 2nd, 3rd 4th and 5th instar) was determined daily throughout the experiment.
as §1, with “5th, and 5 R (5th that has reproduced)” for “5th”
as §2

Buchnera = test: Buchnera/aphid DNA copy number by qPCR; format: in vivo, Acyrthosiphon pisum; conditions: lowest concentration (0.5%), 3 days

SMILES: Cc1cc2c(C(C)C)c(O)c(O)c(C=O)c2c(O)c1-c1c(C)cc2c(C(C)C)c(O)c(O)c(C=O)c2c1O [gossypol, gossypol acetic acid]
- time after which aphids began dying ([1]; 0.5%, through plants): 2 days
- time by which all aphids succumbed to treatment ([1]; 0.5%, through plants): ≤ 4 days

SMILES: CC(=O)CCC(=O)O [levulinic acid]
- aphid survival ([1]; 0.03%, 11-day experiment): higher mortality compared to control treated aphids
- aphid survival ([1]; 0.03 or 0.3%): dose-dependent decrease in survival; also recorded: decrease in insect survival
- aphid survival ([1]; 0.3%, 11-day experiment): significantly less
- aphids that did not mature further than the 4rd instar stage ([2]; 0.03%): ~23%
- aphid development ([2]; 0.03 or 0.3% in water, leaf injection and through plant, eNASCO): delayed aphid development
- aphids that did not mature further than the 4rd instar stage ([2]; 0.3%): ~63%

SMILES: O=C/C=C/c1ccccc1 [trans-cinnemaldehyde]
- Buchnera/aphid DNA copies (Buchnera): high ratios of Buchnera/aphid DNA copies
- aphid survival ([1]; 0.05%, 0.5%, and 5%): dose-dependent decrease in survival; also recorded: significantly lower
- aphid development ([2]; 0.05%, 0.5% and 5% in water, leaf perfusion and through plants, 3 days): delayed
- aphid development ([2]; 0.05%, 0.5% and 5% in water, leaf perfusion and through plants, 3 days, listed as Trans-cinnemaldehyde): delayed aphid development
- aphid development (stage reached) ([2]; 5%): remained at the 1st instar stage throughout the course of the experiment
